The record followed here is patent US6486326B2, “iso-CBI and iso-CI analogs of CC-1065 duocarmycins” (The Scripps Research Institute, priority 1997, dated 2002).

The test system of this assay is w794 DNA (SV40 DNA segment, 144 bp). In words: DNA alkylation selectivity and efficiency, thermally-induced strand cleavage of w794 DNA. It is filed as biochemical. How it is done:
FIG. 5 illustrates thermally-induced strand cleavage of w794 DNA (SV40 DNA segment, 144 bp, nucleotide nos. 138-5238); DNA-agent incubation for 24 hours at 25° C., removal of unbound agent and 30 minutes of thermolysis (100° C.), followed by denaturing 8% PAGE and autoradiography, lane 1, control DNA; lanes 2-5, Sanger G, C, A, and T sequencing reactions; lanes 6-7 (−)-iso-CBI-TMI (1×10^−3 and 1×10^−4 M); lanes 8-9, (+)-CBI-TMI (1×10^−5 and 1×10^−4 M); lanes 10-11, (+)-duocarmycin SA (1×10^−5 and 1×10^−6).
FIG. 7 illustrates thermally-induced strand cleavage of w794 DNA (SV40 DNA segment, 144 bp, nucleotide nos. 138-5238); DNA-agent incubation for 24 h at 25° C., removal of unbound agent and 30 min of thermolysis (100° C.), followed by denaturing 8% PAGE and autoradiography; lane 1, control DNA; lanes 2-5, Sanger G, C, A, and T sequencing reactions; lanes 6-8 (+)-duocarmycin SA (1×10^−4 to 1×10^−6 M); lanes9-11, seco-iso-CI-TMI (1×10^−3 to 1×10^−5 M).
DNA Alkylation Selectivity and Efficiency: The DNA alkylation properties of the agents were examined within w794 and w836 duplex DNA for which comparative results are available for related agents. (Boger, D. L., et al., J. Am. Chem. Soc. 1994, 116, 11335; Boger, D. L., et al., J. Am. Chem. Soc. 1994, 116, 6461; and Boger, D. L., et al., J. Am. Chem. Soc. 1995, 117, 11647) The alkylation site identification and the assessment of the relative selectivity among the available sites were obtained by thermally-induced strand cleavage of the singly 5′ end-labeled duplex DNA after exposure to the agents. Following treatment of the end-labeled duplex DNA with a range of agent concentrations and temperatures in the dark, the unbound agent was removed by EtOH precipitation of the DNA Redissolution of the DNA in aqueous buffer, thermolysis (100° C., 30 min) to induce strand cleavage at the sites of DNA alkylation, denaturing high-resolution polyacrylamide gel electrophoresis (PAGE) adjacent to Sanger dideoxynucleotide sequencing standards, and autoradiography led to identification of the DNA cleavage and alkylation sites. The full details of this procedure have been disclosed elsewhere. (Boger, D. L., et al., Tetrahedron 1991, 47, 2661.)
DNA Alkylation Studies: Selectivity and Efficiency: Eppendorf tubes containing singly ^32p 5′-end-labeled double-stranded DNA (9 μL) (Boger, D. L., et al., Tetrahedron 1991, 47, 2661.) in TE buffer (10 mM Tris, 1 mM EDTA, pH 7.5) were treated with the agents in DMSO (1 μL, at the specified concentrations). The solutions were mixed by vortexing and brief centrifugation and subsequently incubated at 4° C., 25° C. or 37° C. for 24-72 h. […]

Consider `COc1cc2cc(C(=O)N3CC4CC45C(=O)c4ccccc4C=C35)[nH]c2c(OC)c1OC` (single isomer, unassigned; (-)) [(−)-iso-CBI-TMI, 2-[(5,6,7-Trimethoxyindol-2-yl)carbonyl]-1,2,9,9a-tetrahydrocyclopropa[c]benzo[f]indol-8-one], for which the “DNA alkylation sequence selectivity compared with (+)-duocarmycin SA” value is on record as “same sequence selectivity”. The “DNA alkylation efficiency, less efficient than (+)-CBI-TMI and (+)-duocarmycin SA” value (24 h, 25° C.) is 50-100 ×.
